In US20130065757A1, “CHEMICAL COMPOUNDS” (Syngenta Limited, priority 2010, published 2013) one finds pest or weed control data, which are given here for eight molecules.

What all share (format): in vivo
In test [1] the test system is Alopecurus myosuroides (ALOMY). As to the kind of experiment: Pre-emergence biological efficacy, glasshouse pot test. The following applies: 312 h, 1,000 g/ha, evaluated after 13 days, 100=total damage, 0=no damage, read-out: Percentage damage caused to weed species, pre-emergence, ALOMY. As for the experimental part:
(§1) Seeds of Alopecurus myosuroides (ALOMY), Setaria faberi (SETFA), Echinochloa crus-galli (ECHCG), Solanum nigrum (SOLNI), Amaranthus retroflexus (AMARE) and Ipomoea hederaceae (IPOHE) were sown in standard soil in pots. After cultivation for one day under controlled conditions in a glasshouse (at 24/16° C., day/night; 14 hours light; 65% humidity), the plants were sprayed with an aqueous spray solution derived from the formulation of the technical active ingredient in acetone/water (50:50) solution containing 0.5% Tween 20 (polyoxyethylene sorbitan monolaurate, CAS RN 9005-64-5) to give a final dose of 1000 g/ha of test compound.
(§2) The test plants were then grown under controlled conditions in the glasshouse (at 24/16° C., day/night; 14 hours light; 65% humidity) and watered twice daily. After 13 days the test was evaluated (100=total damage to plant; 0=no damage to plant).

Test [2] has as its system Amaranthus retroflexus (AMARE). Described as above. The following applies: 312 h, 1,000 g/ha, evaluated after 13 days, 100=total damage, 0=no damage, read-out: Percentage damage caused to weed species, pre-emergence, AMARE. The protocol: as §1, §2
The subject of test [3] is Echinochloa crus-galli (ECHCG). The description is as above. As to conditions: 312 h, 1,000 g/ha, evaluated after 13 days, 100=total damage, 0=no damage, read-out: Percentage damage caused to weed species, pre-emergence, ECHCG. As for the experimental part:
as §1, §2

In test [4] the test system is Ipomoea hederaceae (IPOHE). The description is as above. As to conditions: 312 h, 1,000 g/ha, evaluated after 13 days, 100=total damage, 0=no damage, read-out: Percentage damage caused to weed species, pre-emergence, IPOHE. The protocol:
as §1, §2

In test [5] the test system is Setaria faberi (SETFA). Described as above. The following applies: 312 h, 1,000 g/ha, evaluated after 13 days, 100=total damage, 0=no damage, read-out: Percentage damage caused to weed species, pre-emergence, SETFA. As for the experimental part:
as §1, §2

Test [6] has as its system Solanum nigrum (SOLNI). Described as above. As to conditions: 312 h, 1,000 g/ha, evaluated after 13 days, 100=total damage, 0=no damage, read-out: Percentage damage caused to weed species, pre-emergence, SOLNI. The protocol: as §1, §2
The subject of test [7] is Alopecurus myosuroides (ALOMY). As to the kind of experiment: Post-emergence biological efficacy, glasshouse pot test. The following applies: 312 h, 1,000 g/ha, post-emergence (sprayed after 8 days), evaluated after 13 days, 100=total damage, 0=no damage, read-out: Percentage damage caused to weed species, post-emergence, ALOMY. As for the experimental part:
as §1, with “8 days” for “one day”
(§3) The test plants were then grown on under controlled conditions in a glasshouse (at 24/16° C., day/night; 14 hours light; 65% humidity) and watered twice daily. After 13 days the test was evaluated (100=total damage to plant; 0=no damage to plant).

The subject of test [8] is Amaranthus retroflexus (AMARE). The description is as above. As to conditions: 312 h, 1,000 g/ha, post-emergence (sprayed after 8 days), evaluated after 13 days, 100=total damage, 0=no damage, read-out: Percentage damage caused to weed species, post-emergence, AMARE. The protocol:
as §1, with “8 days” for “one day”
as §3

In test [9] the test system is Echinochloa crus-galli (ECHCG). The description is as above. As to conditions: 312 h, 1,000 g/ha, post-emergence (sprayed after 8 days), evaluated after 13 days, 100=total damage, 0=no damage, read-out: Percentage damage caused to weed species, post-emergence, ECHCG. As for the experimental part: as §1, with “8 days” for “one day”
as §3

Test [10] relates to Ipomoea hederaceae (IPOHE). Described as above. As to conditions: 312 h, 1,000 g/ha, post-emergence (sprayed after 8 days), evaluated after 13 days, 100=total damage, 0=no damage, read-out: Percentage damage caused to weed species, post-emergence, IPOHE. As for the experimental part: as §1, with “8 days” for “one day”
as §3

Test [11] has as its system Setaria faberi (SETFA). Described as above. The following applies: 312 h, 1,000 g/ha, post-emergence (sprayed after 8 days), evaluated after 13 days, 100=total damage, 0=no damage, read-out: Percentage damage caused to weed species, post-emergence, SETFA. As for the experimental part: as §1, with “8 days” for “one day”
as §3

Test [12] relates to Solanum nigrum (SOLNI). The description is as above. As to conditions: 312 h, 1,000 g/ha, post-emergence (sprayed after 8 days), evaluated after 13 days, 100=total damage, 0=no damage, read-out: Percentage damage caused to weed species, post-emergence, SOLNI. As for the experimental part: as §1, with “8 days” for “one day”
as §3

As to `COC(=O)c1nc(Cl)cc(N)c1C(F)(F)F` [Compound 2-2, 4-amino-6-chloro-3-trifluoromethyl-pyridine-2-carboxylic acid methyl ester], the pest or weed control at 1000 g/ha in [1] was 20%; in [2], 80%; in test [3] it was 10%; in [4] it was 90%; in the test with Setaria faberi (SETFA) [5], 0%; with Solanum nigrum (SOLNI) [6] it was 80%. Besides, the pest or weed control at 1000 g/ha in test [7] was 10%; in test [8], 80%; in [9], 10%; in test [10] it was 70%; with Setaria faberi (SETFA) [11], 10%; in the test with Solanum nigrum (SOLNI) [12], 80%.
On to `COC(=O)c1nc(Cl)cc(N)c1-c1ccc(Cl)cc1` [Compound 2-168, 4-Amino-6-chloro-3-(4-chlorophenyl)-pyridine-2-carboxylic acid methyl ester], for which the pest or weed control at 1000 g/ha in test [1] is 30%; in test [2] it was 90%; in test [3], 20%; in [4] it was 80%; in the test with Setaria faberi (SETFA) [5], 0%; with Solanum nigrum (SOLNI) [6], 80%. Moreover, the pest or weed control at 1000 g/ha worked out at 20% in [7]; 100% in test [8]; 10% in [9]; 70% in [10]; 20% with Setaria faberi (SETFA) [11]; 80% in the test on Solanum nigrum (SOLNI) [12].
On to `C/C=C\c1c(N)cc(Cl)nc1C(=O)OC` [2-5 (Z isomer), (Z)-4-Amino-6-chloro-3-(prop-1-enyl)-pyridine-2-carboxylic acid methyl ester], for which the pest or weed control at 1000 g/ha in [1] turned out to be 90%; in [2] it was 100%; in [3], 70%; in [4] it was 90%; in the test with Setaria faberi (SETFA) [5], 100%; in the test on Solanum nigrum (SOLNI) [6] it was 100%. Besides, the pest or weed control at 1000 g/ha in test [7] came to 50%; in test [8] it was 100%; in test [9], 60%; in [10] it was 50%; in the test on Setaria faberi (SETFA) [11] it was 80%; in the test with Solanum nigrum (SOLNI) [12] it was 100%.
For the molecule `C=Cc1c(N2CCCC2)cc(Cl)nc1C(=O)OC` [Compound 31-4, 6-Chloro-3-ethenyl-4-pyrrolidin-1-yl-pyridine-2-carboxylic acid methyl ester], the pest or weed control at 1000 g/ha in test [1] came out at 60%; in test [2], 100%; in [3], 10%; in test [4], 80%; in the test with Setaria faberi (SETFA) [5], 50%; in the test with Solanum nigrum (SOLNI) [6], 90%. The pest or weed control at 1000 g/ha was found to be 20% in test [7]; 90% in [8]; 20% in test [9]; 70% in [10]; 50% in the test on Setaria faberi (SETFA) [11]; 90% in the test on Solanum nigrum (SOLNI) [12].
Consider `C=Cc1c(N)cc(Cl)nc1C(=O)OC` [Compound 2-4, 4-amino-6-chloro-3-ethenyl-pyridine-2-carboxylic acid methyl ester], for which the pest or weed control at 1000 g/ha in test [1] is 90%; in test [2], 100%; in [3], 90%; in test [4], 100%; with Setaria faberi (SETFA) [5], 90%; in the test with Solanum nigrum (SOLNI) [6] it was 100%. Moreover, the pest or weed control at 1000 g/ha in [7] stood at 90%; in test [8] it was 100%; in [9], 80%; in [10] it was 80%; with Setaria faberi (SETFA) [11] it was 100%; in the test with Solanum nigrum (SOLNI) [12], 100%.
In the case of `COC(=O)c1nc(Cl)cc(N)c1C` [Compound 2-1, 4-amino-6-chloro-3-methyl-pyridine-2-carboxylic acid methyl ester], the pest or weed control at 1000 g/ha in test [1] was determined as 90%; in [2], 100%; in test [3] it was 70%; in test [4], 80%; in the test on Setaria faberi (SETFA) [5], 80%; in the test on Solanum nigrum (SOLNI) [6], 100%. For the same molecule, the pest or weed control at 1000 g/ha was determined as 90% in test [7]; 100% in test [8]; 60% in test [9]; 50% in test [10]; 100% with Setaria faberi (SETFA) [11]; 90% in the test with Solanum nigrum (SOLNI) [12].
Turning to `C=C(C)Cc1c(N)cc(Cl)nc1C(=O)OC` [Compound 2-8, 4-amino-6-chloro-3-(2-methyl-prop-2-enyl)-pyridine-2-carboxylic acid methyl ester], the pest or weed control at 1000 g/ha in test [1] turned out to be 10%; in [2] it was 40%; in test [3], 0%; in [4] it was 80%; in the test with Setaria faberi (SETFA) [5] it was 10%; in the test with Solanum nigrum (SOLNI) [6], 80%. For the same molecule, the pest or weed control at 1000 g/ha was 10% in [7]; 70% in [8]; 0% in test [9]; 50% in test [10]; 10% in the test on Setaria faberi (SETFA) [11]; 80% in the test with Solanum nigrum (SOLNI) [12].
As to `C=Cc1c(C(=O)OC)nc(Cl)c(Cl)c1N` [Compound 2-20, 4-amino-5,6-dichloro-3-ethenyl-1-pyridine-2-carboxylic acid methyl ester], the pest or weed control at 1000 g/ha in test [1] was determined as 90%; in test [2], 100%; in test [3], 90%; in test [4], 100%; in the test with Setaria faberi (SETFA) [5], 90%; in the test on Solanum nigrum (SOLNI) [6], 100%. The pest or weed control at 1000 g/ha was found to be 90% in [7]; 100% in test [8]; 90% in [9]; 100% in test [10]; 90% in the test on Setaria faberi (SETFA) [11]; 100% in the test on Solanum nigrum (SOLNI) [12].
